The source of these data is US6476032B2, “2,3,4,4a-tetrahydro-1H-pyrazino[1,2-a]quinoxalin-5(6H)one derivatives” (Wyeth, priority 1998, dated 2002).

As a reminder, the EC50 is the concentration needed to bring the measured effect to its halfway point. One may read the melting point as the temperature, or range, at which the solid turns liquid. As usually defined, the Kd is a measure of binding affinity in units of concentration.

Structures are written as SMILES. Where a name gives a salt, the structure may show the parent alone. Read-outs that look alike come from different tables or passages of the source.

Data set [1] concerns the target T1, human 5-hydroxy-tryptamine2C (h5HT2C) receptor (Homo sapiens, UniProt P28335).
T1 construct: expressed in transfected cells; host or cells: CHO (Chinese Hamster Ovary) cells; membranes
T1 sequence (P28335 33-458): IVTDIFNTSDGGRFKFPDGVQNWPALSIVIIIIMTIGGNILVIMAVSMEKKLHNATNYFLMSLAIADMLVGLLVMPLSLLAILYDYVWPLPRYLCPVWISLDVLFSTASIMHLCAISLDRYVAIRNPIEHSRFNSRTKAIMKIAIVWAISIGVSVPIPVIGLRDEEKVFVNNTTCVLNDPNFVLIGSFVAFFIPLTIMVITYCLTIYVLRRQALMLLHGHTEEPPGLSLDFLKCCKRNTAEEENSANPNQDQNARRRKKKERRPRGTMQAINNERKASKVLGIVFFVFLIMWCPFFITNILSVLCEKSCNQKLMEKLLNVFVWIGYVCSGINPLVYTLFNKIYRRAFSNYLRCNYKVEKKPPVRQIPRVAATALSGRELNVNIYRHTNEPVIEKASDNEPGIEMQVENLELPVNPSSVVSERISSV
Kind of data set: 5HT2C Receptor Binding Test Procedure ([125I] DOI).

In the next data set the target is T2, human 5-HT2C receptor (Homo sapiens, UniProt P28335).
T2 construct: expressed in transfected cells; host or cells: CHO cells
T2 sequence (P28335 33-458): T1 sequence (P28335 33-458)
In words: Stimulation of [3H] Inositol Monophosphate Production by 5HT2C Agonists. The class given is cell-based.

Data set [2] concerns food intake in male Sprague-Dawley rats. Kind of data set: Effects of Compounds on Feeding Behavior in Rats (food intake, 24 hr fast). The format is in vivo. Conditions: Rattus norvegicus, dose giving 50% reduction in food intake. The method, then: Effects of Compounds on Feeding Behavior in Rats
Eight (8) male Sprague-Dawley rats weighing 150-180 g were separated into individual cages and acclimated to a powdered diet for 2 weeks. During this period and throughout the test procedure, the food cup and the animals were weighed daily. Following the acclimation period, animals were fasted for 24 hours and then injected with either vehicle or one of 4 doses of the test compound. Food intake was assessed at 2 and 24 hours following compound administration. Compounds to be evaluated were injected 1-2× per week until all animals had received all doses of the test compound. The order of doses were chosen using to a modified Latin Square design. Additional studies may be conducted in satiated rats at the start of the dark cycle. Compounds were injected i.p, s.c. or p.o. At the end of the study effects of the test compound on food intake was evaluated using a repeated measures ANOVA. Data were collected were 2 hour food intake (g). Data were subjected to one-way ANOVA with posthoc t-tests to assess group differences. Where appropriate, ED50 values were calculated.

Setting [3] is: read-out: 5HT2C Affinity DOI/Agonist binding (Ki), [125I] DOI agonist binding.
[4] abbreviates: CHO cells expressing human 5-HT2C, read-out: Stimulation of IP3 (EC50).
Setting [5] is: read-out: 5HT2C % Emax (5HT, 100%).

Experimental for human 5-HT2C receptor: One (1) ml of maintenance medium containing 1 μCi/ml myo-[^3H] inositol was added to each well. After 48 hours labeling, the cells were washed once with 0.5 ml DMEM containing 25 mM HEPES and 10 mM LiCl, then preincubated with the medium for 30 min (antagonists were included in this period if tested). At the end of the preincubation, the medium was removed, the cells were then incubated with test compounds (in presence of antagonists if needed) for 30 min. The reaction was terminated by removal of the incubation solution and addition of 0.5 ml ice-cold 5% PCA, followed by 15 to 30 min incubation on ice. 200 μl of 0.5 M Tes/1.5 M K2CO3 was added to each well to neutralize to pH 7, and plates were left on ice for another 15 to 30 min to precipitate all salts. The liquid and solid phases were separated by centrifugation.
A portion (350 μl) of the upper aqueous phase was applied to Dowex AG-1X8 (formate form, 100-200 mesh) columns. The columns were then washed stepwise with 10 ml of water and 10 ml of 25 mM ammonium formate to remove free myo-[^3H]inositol and deacylated phosphoinositol, respectively. Finally 10 ml of 0.2 M ammonium formate solution was applied to the columns to elute [^3H] inositol monophosphate ([^3H] IP1) directly into scintillation vials. Of this eluate, 1 ml was used to determine radioactivity by scintillation counting.
A 3-parameter logistic function is used to generate estimate of EC50/IC50.

Take `O=C1Nc2cc(F)c(F)cc2N2CCNCC12` (centres unmarked) [Example 13, 8,9-Difluoro-2,3,4,4a-Tetrahydro-1H-Pyrazino[1,2-a]Quinoxalin-5(6H)-One]: the Ki in data set [1] (setting [3]) came out at 91 nM.

Turning to `O=C1Nc2cc(C(F)(F)F)c(Cl)cc2N2CCNC[C@@H]12` [Example 8, (S)-9-Chloro-8-Trifluoromethyl-2,3,4,4a-Tetrahydro-1H-Pyrazino[1,2-a]-Quinoxalin-5(6H)-One. Hydrochloride], the EC50 on human 5-HT2C receptor (setting [4]) was 2610 nM. Further, on human 5-HT2C receptor (setting [5]), the Emax stood at 85%. Also, in data set [1] (setting [3]), the Ki is 516 nM.

As for `O=C1Nc2ccc(Cl)cc2N2CCNC[C@H]12` (as salt: hydrochloride) [Example 12, (R)-9-Chloro-2,3,4,4a-Tetrahydro-1H-Pyrazino[1,2a]Quinoxalin-5(6H)-One], the melting point lay within 146 to 149 °C.

`Clc1cc2c(cc1Cl)N1CCNC[C@@H]1CN2` (single isomer, unassigned) [Example 5, dihydrochloride] had an EC50 at human 5-HT2C receptor of 33.8 nM. Further, on human 5-HT2C receptor (setting [5]), the Emax is 100%. The same molecule displayed a Ki in data set [1] of 7 nM.

`O=C1Nc2ccc(Cl)c(Cl)c2N2CCNCC12` (centres unmarked) [Example 10, 9,10-Dichloro-2,3.4,4a-Tetrahydro-1H-Pyrazino[1,2-a]-Quinoxalin-5(6H)-One, Hydrochloride] displayed a Ki in data set [1] of 1040 nM.

For the molecule `O=C1Nc2cc(Cl)c(Cl)cc2N2CCNCC12` (centres unmarked) [Example 1, 8,9-Dichloro-2,3,4,4a-Tetrahydro-1H-Pyrazino[1,2-a]Quinoxalin-5(6H)-One], the ED50 in data set [2] (ip) came to 1.91 mg/kg; in data set [2] (po) it was 9.73 mg/kg. Moreover, the EC50 on human 5-HT2C receptor (setting [4]) stood at 12 nM. For the same molecule, the Emax at human 5-HT2C receptor (setting [5]) was found to be 108%. The same molecule showed a Ki in data set [1] of 4.33 nM.

Turning to `O=C1Nc2cc(C(F)(F)F)c(Cl)cc2N2CCNC[C@H]12` [Example 9, (R)-9-Chloro-8-Trifluoromethyl-2,3,4,4a-Tetrahydro-1H-Pyrazino[1,2-a]-Quinoxalin-5(6H)-One, Hydrochloride], the EC50 on human 5-HT2C receptor (setting [4]) was found to be 18.8 nM. For the same molecule, the Emax at human 5-HT2C receptor (setting [5]) is 100%. Besides, the Ki in data set [1] (setting [3]) was 25 nM.

`Clc1cc2c(cc1Cl)N1CCNC[C@H]1CN2` (single isomer, unassigned) [Example 6, dihydrochloride] came in with an EC50 on human 5-HT2C receptor of 23.2 nM. The Emax at human 5-HT2C receptor (setting [5]) was 77%. This molecule showed a Ki in data set [1] of 8 nM.

Regarding `CSc1ccc2c(c1)C(N1CCN(C)CC1)Cc1ccccc1S2` (centres unmarked) [Methiothepin, reference compound], the Ki in data set [1] (reference compounds, [125I] DOI binding, CHO cell membranes, read-out: Ki value and 95% confidence interval) was 4.6 nM.

Regarding `O=C1Nc2cc(C(F)(F)F)c(Cl)cc2N2CCNCC12` (centres unmarked) [Example 7, 9-Chloro-8-Trifluoromethyl-2,3 4,4a-Tetrahydro-1H-Pyrazino[1,2-a]-Quinoxalin-5(6H)-One, Hydrochloride], the concentration giving a half-maximal response (EC50) on human 5-HT2C receptor (setting [4]) is 97.3 nM. Besides, the Emax at human 5-HT2C receptor (setting [5]) turned out to be 100%. In data set [1], this molecule came in with a Ki of 8 nM.

Take `O=C1Nc2ccc(Cl)cc2N2CCNC[C@H]12` [Example 12, (R)-9-Chloro-2,3,4,4a-Tetrahydro-1H-Pyrazino[1,2a]Quinoxalin-5(6H)-One]: at human 5-HT2C receptor, the EC50 turned out to be 30 nM. In addition, the Emax at human 5-HT2C receptor (setting [5]) came to 95%. The Ki in data set [1] amounted to 9 nM.

On to `COc1cc(CC(C)N)c(OC)cc1I` (centres unmarked) [[^125I] DOI, reference compound], for which the Kd in data set [1] (read-out: dissociation constant, KD of [125I] DOI at the human serotonin 5HT2C receptor, saturation binding with increasing concentrations of [125I] DOI) worked out at 0.4 nM.

Regarding `O=C1Nc2cc(Cl)c(Cl)cc2N2CCNC[C@H]12` [Example 2, (R)-8,9-Dichloro-2,3,4,4a-Tetrahydro-1H-Pyrazino[1,2-a]Quinoxalin-5(6H)-One], the ED50 in data set [2] (ip) was found to be 1.99 mg/kg. The EC50 on human 5-HT2C receptor (setting [4]) amounted to 7.92 nM. At human 5-HT2C receptor (setting [5]), the Emax was determined as 112%. Further, the Ki in data set [1] was found to be 4.18 nM.

In the case of `Cl.O=C1Nc2c(Cl)cc(Cl)cc2N2CCNCC12` (centres unmarked) [Example 11, 7,9-Dichloro-2,3,4,4A-Tetrahydro-1H-Pyrazino[1,2-a]Quinoxalin-5(6H)-One, Hydrochloride], in data set [2] (ip), the ED50 amounted to 9.99 mg/kg. Further, the Emax at human 5-HT2C receptor (read-out: 5HT2C % Emax (5HT, 100%) at single concentration) came to 73%. The Ki in data set [1] (setting [3]) turned out to be 19.8 nM.

`O=C1Nc2cc(Cl)c(Cl)cc2N2CCNC[C@@H]12` [Example 3, (S)-8,9-Dichloro-2,3,4,4a-Tetrahydro-1H-Pyrazino[1,2-a]Quinoxalin-5(6H)-One]: on human 5-HT2C receptor (setting [4]), the EC50 came out at 290 nM. For the same molecule, at human 5-HT2C receptor (setting [5]), the Emax is 89%. Further, the Ki in data set [1] (setting [3]) was found to be 66.4 nM.

`Clc1cc2c(cc1Cl)N1CCNCC1CN2` (centres unmarked) [Example 4, 8,9-Dichloro-2,3,4,4a,5,6-Hexahydro-1H-Pyrazino[1,2-a]Quinoxaline, dihydrochloride] yielded an EC50 on human 5-HT2C receptor of 7.32 nM. In addition, the Emax on human 5-HT2C receptor (setting [5]) worked out at 99%. In data set [1] (setting [3]), the Ki is 1 nM.
